Reference: ChEMBL document CHEMBL3991601, “The target landscape of clinical kinase drugs” (Science, 2017)
Where a name gives a salt, the structure may show the parent alone. Active and inactive are the calls of the source.

Tests used:
Aurora kinase B = Aurora kinase B (Homo sapiens, UniProt Q96GD4)
Myosin-10 = Myosin-10 (Homo sapiens, UniProt P35580)
[1] = target: Serine/threonine-protein kinase B-raf (Homo sapiens, UniProt P15056)
[2] = target: Protein-tyrosine kinase 6 (Homo sapiens, UniProt Q13882)
[3] = target: Cyclin-dependent kinase 12 (Homo sapiens, UniProt Q9NYV4)
[4] = target: T1, Serine/threonine-protein kinase Nek1 (Homo sapiens, UniProt Q96PY6)
T1 sequence (Q96PY6 whole entry): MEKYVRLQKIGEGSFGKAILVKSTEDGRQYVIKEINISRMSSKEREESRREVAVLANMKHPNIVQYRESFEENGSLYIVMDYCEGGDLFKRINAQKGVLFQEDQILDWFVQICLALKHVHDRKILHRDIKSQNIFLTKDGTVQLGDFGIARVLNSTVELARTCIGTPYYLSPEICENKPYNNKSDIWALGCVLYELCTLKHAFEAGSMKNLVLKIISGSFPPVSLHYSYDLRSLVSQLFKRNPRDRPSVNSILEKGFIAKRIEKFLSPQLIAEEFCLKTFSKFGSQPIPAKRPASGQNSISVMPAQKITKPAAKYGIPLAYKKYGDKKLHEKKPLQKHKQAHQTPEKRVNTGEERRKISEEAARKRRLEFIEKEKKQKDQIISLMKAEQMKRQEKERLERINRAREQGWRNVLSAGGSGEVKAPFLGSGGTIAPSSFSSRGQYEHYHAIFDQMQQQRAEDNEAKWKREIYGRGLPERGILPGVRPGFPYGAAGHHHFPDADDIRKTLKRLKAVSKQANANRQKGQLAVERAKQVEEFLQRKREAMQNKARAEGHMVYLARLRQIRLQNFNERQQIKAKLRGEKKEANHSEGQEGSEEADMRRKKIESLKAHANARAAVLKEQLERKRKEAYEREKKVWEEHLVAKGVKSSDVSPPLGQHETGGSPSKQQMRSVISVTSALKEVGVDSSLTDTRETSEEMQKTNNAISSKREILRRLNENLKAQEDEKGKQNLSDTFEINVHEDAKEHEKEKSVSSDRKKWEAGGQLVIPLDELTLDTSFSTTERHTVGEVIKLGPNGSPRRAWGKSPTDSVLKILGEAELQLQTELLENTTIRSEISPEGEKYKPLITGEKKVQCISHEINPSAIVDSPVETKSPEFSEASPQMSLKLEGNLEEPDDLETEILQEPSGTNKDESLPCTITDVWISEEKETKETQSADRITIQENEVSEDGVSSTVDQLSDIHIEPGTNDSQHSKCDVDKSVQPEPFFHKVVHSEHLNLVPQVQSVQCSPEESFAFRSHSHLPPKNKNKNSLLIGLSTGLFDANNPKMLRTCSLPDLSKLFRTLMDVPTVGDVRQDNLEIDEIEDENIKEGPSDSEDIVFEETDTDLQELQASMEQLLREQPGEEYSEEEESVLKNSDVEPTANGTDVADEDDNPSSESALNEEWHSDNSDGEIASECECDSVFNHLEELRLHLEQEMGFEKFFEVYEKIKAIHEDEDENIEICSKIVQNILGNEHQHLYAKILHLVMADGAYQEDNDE

[5] = target: Inosine-5'-monophosphate dehydrogenase 2 (Homo sapiens, UniProt P12268)
Actin-related protein 2 = Actin-related protein 2 (Homo sapiens, UniProt P61160)
[6] = target: Tyrosine-protein kinase SYK (Homo sapiens, UniProt P43405)
[7] = target: DnaJ homolog subfamily A member 1 (Homo sapiens, UniProt P31689)
[8] = target: Casein kinase I isoform epsilon (Homo sapiens, UniProt P49674)
[9] = target: Cyclin-dependent kinase 7 (Homo sapiens, UniProt P50613)
[10] = target: T2, Glycogen phosphorylase, liver form (Homo sapiens, UniProt P06737); type: subcellular, K-562, COLO 205, SK-N-BE(2) and MV-4-11, Cell lysate; conditions: read-out: Kd apparent
T2 sequence (P06737 whole entry): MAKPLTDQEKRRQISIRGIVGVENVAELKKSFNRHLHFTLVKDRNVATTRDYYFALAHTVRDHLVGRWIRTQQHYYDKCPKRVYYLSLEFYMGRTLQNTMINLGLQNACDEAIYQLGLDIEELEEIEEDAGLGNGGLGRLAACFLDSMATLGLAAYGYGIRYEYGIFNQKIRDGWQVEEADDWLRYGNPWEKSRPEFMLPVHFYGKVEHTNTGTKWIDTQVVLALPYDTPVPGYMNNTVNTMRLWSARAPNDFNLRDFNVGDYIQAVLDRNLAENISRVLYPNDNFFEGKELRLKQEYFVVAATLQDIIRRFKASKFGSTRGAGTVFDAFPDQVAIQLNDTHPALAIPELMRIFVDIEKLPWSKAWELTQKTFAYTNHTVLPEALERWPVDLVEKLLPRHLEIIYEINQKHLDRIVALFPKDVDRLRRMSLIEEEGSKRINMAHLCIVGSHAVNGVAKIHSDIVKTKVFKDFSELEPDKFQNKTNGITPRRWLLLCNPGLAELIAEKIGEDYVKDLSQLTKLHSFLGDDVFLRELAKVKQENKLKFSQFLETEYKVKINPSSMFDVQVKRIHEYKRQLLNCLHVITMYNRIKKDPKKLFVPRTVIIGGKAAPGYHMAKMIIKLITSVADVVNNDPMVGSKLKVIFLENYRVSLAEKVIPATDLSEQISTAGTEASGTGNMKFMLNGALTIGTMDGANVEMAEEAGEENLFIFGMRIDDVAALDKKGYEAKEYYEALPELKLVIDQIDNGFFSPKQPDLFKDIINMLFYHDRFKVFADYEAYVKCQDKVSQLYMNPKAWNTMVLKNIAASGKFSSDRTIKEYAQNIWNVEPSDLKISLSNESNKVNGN

[11] = target: S-adenosylmethionine synthase isoform type-2 (Homo sapiens, UniProt P31153)
Further: in the data inactive means no Kd found up to 30 µM.

Chain of Serine/threonine-protein kinase B-raf (P15056 whole entry): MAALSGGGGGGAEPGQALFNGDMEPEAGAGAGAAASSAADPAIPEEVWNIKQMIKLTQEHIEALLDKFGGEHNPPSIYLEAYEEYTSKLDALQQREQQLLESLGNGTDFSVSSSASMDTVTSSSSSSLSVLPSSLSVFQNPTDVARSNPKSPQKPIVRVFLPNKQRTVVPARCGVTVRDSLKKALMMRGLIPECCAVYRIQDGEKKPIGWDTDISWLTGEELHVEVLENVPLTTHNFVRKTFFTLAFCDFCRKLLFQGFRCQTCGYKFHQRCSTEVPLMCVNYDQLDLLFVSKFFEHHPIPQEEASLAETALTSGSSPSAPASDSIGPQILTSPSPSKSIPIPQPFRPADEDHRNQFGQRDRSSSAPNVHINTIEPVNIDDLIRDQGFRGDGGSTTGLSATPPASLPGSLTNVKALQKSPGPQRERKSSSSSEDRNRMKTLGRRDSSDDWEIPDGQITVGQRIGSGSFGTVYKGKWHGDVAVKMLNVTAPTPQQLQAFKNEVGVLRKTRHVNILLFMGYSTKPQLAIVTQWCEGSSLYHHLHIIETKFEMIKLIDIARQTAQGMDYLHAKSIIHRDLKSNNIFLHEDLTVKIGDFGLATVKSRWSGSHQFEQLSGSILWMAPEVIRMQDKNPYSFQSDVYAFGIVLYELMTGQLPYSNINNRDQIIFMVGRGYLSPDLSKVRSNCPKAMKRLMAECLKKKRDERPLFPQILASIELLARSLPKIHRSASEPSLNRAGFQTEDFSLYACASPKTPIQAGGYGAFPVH
Chain of Casein kinase I isoform epsilon (P49674 whole entry, canonical isoform): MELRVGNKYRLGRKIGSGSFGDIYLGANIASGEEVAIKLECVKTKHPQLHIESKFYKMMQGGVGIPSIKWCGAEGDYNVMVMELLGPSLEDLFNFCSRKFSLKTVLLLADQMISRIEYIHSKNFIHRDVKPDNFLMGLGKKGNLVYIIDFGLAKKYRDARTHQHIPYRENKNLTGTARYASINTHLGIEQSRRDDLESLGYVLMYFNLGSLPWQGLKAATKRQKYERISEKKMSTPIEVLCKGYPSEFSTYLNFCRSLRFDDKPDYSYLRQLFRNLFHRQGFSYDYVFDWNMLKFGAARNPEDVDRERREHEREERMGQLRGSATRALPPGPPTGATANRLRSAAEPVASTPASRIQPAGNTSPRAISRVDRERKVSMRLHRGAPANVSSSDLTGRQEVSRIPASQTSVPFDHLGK
Chain of S-adenosylmethionine synthase isoform type-2 (P31153 whole entry, canonical isoform): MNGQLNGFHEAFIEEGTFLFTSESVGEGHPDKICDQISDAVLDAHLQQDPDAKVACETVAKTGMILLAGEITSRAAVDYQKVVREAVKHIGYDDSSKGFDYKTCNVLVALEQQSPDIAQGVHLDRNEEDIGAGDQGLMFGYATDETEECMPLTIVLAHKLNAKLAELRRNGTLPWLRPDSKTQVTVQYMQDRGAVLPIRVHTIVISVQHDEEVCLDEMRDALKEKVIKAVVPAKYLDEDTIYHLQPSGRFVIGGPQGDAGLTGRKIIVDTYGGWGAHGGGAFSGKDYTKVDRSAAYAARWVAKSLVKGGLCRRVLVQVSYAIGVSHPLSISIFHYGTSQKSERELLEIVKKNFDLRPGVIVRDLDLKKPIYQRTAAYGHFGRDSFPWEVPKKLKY
Chain of Protein-tyrosine kinase 6 (Q13882 whole entry): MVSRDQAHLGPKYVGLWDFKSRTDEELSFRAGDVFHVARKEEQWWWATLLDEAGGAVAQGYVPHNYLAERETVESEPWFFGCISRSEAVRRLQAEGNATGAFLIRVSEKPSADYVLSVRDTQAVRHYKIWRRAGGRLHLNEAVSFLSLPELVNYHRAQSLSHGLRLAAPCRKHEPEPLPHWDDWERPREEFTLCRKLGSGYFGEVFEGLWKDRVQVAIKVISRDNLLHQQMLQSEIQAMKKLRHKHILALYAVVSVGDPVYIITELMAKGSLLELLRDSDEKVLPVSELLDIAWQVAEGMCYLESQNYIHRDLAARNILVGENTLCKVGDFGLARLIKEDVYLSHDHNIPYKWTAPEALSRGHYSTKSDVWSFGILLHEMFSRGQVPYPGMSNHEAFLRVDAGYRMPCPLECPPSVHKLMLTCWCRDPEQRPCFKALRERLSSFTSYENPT
Chain of Cyclin-dependent kinase 7 (P50613 whole entry): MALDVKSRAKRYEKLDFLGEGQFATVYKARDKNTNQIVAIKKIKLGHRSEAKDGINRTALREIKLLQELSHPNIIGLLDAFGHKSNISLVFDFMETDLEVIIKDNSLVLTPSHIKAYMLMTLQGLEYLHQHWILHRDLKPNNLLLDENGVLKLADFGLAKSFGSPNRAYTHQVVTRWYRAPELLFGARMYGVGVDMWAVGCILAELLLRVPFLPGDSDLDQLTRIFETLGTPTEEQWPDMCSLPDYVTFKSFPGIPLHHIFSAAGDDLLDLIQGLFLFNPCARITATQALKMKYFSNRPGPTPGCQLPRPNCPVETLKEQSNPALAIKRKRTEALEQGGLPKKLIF
Chain of Cyclin-dependent kinase 12 (Q9NYV4 whole entry): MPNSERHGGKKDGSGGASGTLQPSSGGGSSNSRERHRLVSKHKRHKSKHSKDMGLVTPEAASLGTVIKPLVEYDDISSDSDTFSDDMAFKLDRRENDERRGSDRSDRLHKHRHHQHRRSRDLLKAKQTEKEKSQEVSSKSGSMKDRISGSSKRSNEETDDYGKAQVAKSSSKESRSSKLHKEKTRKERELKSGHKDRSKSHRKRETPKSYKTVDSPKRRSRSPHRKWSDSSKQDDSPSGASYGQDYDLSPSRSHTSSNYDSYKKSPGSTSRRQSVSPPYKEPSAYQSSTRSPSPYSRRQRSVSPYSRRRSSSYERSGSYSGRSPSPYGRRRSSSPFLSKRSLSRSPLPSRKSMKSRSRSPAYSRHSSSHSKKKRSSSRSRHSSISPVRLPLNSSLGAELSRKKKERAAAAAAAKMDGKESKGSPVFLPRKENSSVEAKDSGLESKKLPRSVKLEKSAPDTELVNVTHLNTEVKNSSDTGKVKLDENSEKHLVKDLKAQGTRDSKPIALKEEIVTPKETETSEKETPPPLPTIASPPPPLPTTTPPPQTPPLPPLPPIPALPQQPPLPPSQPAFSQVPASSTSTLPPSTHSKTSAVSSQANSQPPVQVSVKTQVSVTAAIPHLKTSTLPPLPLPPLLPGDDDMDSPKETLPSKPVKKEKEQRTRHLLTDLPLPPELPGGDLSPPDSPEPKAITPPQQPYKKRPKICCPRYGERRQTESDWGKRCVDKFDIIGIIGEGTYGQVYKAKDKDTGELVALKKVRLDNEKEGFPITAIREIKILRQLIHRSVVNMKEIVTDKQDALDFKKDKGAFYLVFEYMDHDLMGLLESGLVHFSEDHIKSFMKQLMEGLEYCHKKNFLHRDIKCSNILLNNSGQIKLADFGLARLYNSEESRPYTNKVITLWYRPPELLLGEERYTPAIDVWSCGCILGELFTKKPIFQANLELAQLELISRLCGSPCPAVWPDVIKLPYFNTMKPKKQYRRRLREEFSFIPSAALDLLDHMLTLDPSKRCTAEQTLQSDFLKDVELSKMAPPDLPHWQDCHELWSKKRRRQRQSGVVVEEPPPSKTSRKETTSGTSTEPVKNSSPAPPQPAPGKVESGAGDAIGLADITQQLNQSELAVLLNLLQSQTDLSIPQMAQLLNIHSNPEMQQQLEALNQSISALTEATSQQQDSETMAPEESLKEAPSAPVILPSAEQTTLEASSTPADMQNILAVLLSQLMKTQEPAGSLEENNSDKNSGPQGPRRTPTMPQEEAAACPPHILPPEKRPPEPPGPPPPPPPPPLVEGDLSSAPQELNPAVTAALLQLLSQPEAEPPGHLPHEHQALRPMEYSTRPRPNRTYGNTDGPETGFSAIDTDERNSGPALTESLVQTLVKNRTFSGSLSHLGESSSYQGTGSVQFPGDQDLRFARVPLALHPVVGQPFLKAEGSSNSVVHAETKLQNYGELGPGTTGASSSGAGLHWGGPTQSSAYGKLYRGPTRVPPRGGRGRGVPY
Chain of DnaJ homolog subfamily A member 1 (P31689 whole entry, canonical isoform): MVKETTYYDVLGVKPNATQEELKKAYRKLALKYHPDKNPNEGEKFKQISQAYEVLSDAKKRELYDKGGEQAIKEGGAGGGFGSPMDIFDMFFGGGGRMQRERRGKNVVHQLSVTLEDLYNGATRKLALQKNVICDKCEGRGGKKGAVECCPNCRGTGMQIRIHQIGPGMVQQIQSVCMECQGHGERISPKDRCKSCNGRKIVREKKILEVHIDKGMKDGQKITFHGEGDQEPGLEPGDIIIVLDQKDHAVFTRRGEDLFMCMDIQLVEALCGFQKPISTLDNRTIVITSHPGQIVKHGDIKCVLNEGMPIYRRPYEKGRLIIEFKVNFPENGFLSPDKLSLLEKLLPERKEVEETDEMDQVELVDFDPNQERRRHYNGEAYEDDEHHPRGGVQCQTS
Chain of Aurora kinase B (Q96GD4 whole entry): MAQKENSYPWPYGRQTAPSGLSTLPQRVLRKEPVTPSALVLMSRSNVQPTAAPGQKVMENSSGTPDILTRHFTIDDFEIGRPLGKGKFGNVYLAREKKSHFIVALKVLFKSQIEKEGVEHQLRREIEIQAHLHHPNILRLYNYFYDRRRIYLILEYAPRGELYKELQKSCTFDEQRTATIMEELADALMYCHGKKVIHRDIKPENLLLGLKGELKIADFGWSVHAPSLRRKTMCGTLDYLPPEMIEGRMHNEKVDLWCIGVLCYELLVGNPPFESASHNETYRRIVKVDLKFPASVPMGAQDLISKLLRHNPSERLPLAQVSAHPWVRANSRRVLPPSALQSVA

Row | SMILES | Kd (Aurora kinase B) | Kd (Myosin-10) | Kd [1] | Kd [2] | Kd [3] | Kd [4] | Kd [5] | Kd (Actin-related protein 2) | Kd [6] | Kd [7] | Kd [8] | Kd [9] | Kd [10] | Kd [11]
1 | C=CC(=O)N1CCC[C@H](n2c(=O)n(-c3ccc(Oc4ccccc4)cc3)c3c(N)ncnc32)C1 | > 30 µM (inactive) | > 30 µM (inactive) | > 30 µM (inactive) | 0.025 µM | > 30 µM (inactive) | > 30 µM (inactive) | > 30 µM (inactive) | > 30 µM (inactive) | > 30 µM (inactive) | > 30 µM (inactive) | > 30 µM (inactive) | > 30 µM (inactive) | > 30 µM (inactive) | > 30 µM (inactive)
2 | Cc1nc2cc(-c3nn(C(C)C)c4ncnc(N)c34)ccc2o1 | > 30 µM (inactive) | > 30 µM (inactive) | > 30 µM (inactive) | 2.1 µM (active) | > 30 µM (inactive) | > 30 µM (inactive) | > 30 µM (inactive) | > 30 µM (inactive) | > 30 µM (inactive) | > 30 µM (inactive) | 0.158 µM (active) | > 30 µM (inactive) | > 30 µM (inactive) | > 30 µM (inactive)
3 | O=C(Nc1c[nH]nc1-c1nc2cc(CN3CCOCC3)ccc2[nH]1)NC1CC1 [AT-9283] | 0.017 µM (active) | > 30 µM (inactive) | > 30 µM (inactive) | 0.188 µM (active) | > 30 µM (inactive) | > 30 µM (inactive) | > 30 µM (inactive) | > 30 µM (inactive) | 0.116 µM (active) | > 30 µM (inactive) | > 30 µM (inactive) | > 30 µM (inactive) | > 30 µM (inactive) | > 30 µM (inactive)
4 | COc1cc([C@@H]2c3cc4c(cc3[C@H](O)[C@H]3COC(=O)[C@@H]23)OCO4)cc(OC)c1OC [AXL-1717] | > 30 µM (inactive) | > 30 µM (inactive) | > 30 µM (inactive) | > 30 µM (inactive) | > 30 µM (inactive) | > 30 µM (inactive) | > 30 µM (inactive) | > 30 µM (inactive) | > 30 µM (inactive) | > 30 µM (inactive) | > 30 µM (inactive) | > 30 µM (inactive) | > 30 µM (inactive) | > 30 µM (inactive)
5 | Cc1cc(C(=O)NOCCO)c(Nc2ccc(I)cc2F)n(C)c1=O [AZD-8330] | > 30 µM (inactive) | > 30 µM (inactive) | > 30 µM (inactive) | > 30 µM (inactive) | > 30 µM (inactive) | > 30 µM (inactive) | > 30 µM (inactive) | > 30 µM (inactive) | > 30 µM (inactive) | > 30 µM (inactive) | > 30 µM (inactive) | > 30 µM (inactive) | > 30 µM (inactive) | –
6 | CCOc1cc2ncc(C#N)c(Nc3ccc(F)c(Cl)c3)c2cc1NC(=O)/C=C/CN(C)C [PELITINIB] | > 30 µM (inactive) | > 30 µM (inactive) | > 30 µM (inactive) | > 30 µM (inactive) | > 30 µM (inactive) | – | > 30 µM (inactive) | > 30 µM (inactive) | > 30 µM (inactive) | > 30 µM (inactive) | 1.48 µM (active) | > 30 µM (inactive) | > 30 µM (inactive) | > 30 µM (inactive)

Continued, values first:

Row | Kd (Aurora kinase B) | Kd (Myosin-10) | Kd [1] | Kd [2] | Kd [3] | Kd [4] | Kd [5] | Kd (Actin-related protein 2) | Kd [6] | Kd [7] | Kd [8] | Kd [9] | Kd [10] | Kd [11] | SMILES
7 | > 30 µM (inactive) | > 30 µM (inactive) | 2.85 µM (active) | > 30 µM (inactive) | > 30 µM (inactive) | > 30 µM (inactive) | > 30 µM (inactive) | > 30 µM (inactive) | > 30 µM (inactive) | > 30 µM (inactive) | > 30 µM (inactive) | > 30 µM (inactive) | > 30 µM (inactive) | > 30 µM (inactive) | COc1cc2ncnc(Oc3cccc(NC(=O)Nc4cc(C(C)(C)C(F)(F)F)on4)c3)c2cc1OC [CEP-32496]
8 | 3.79 µM (active) | > 30 µM (inactive) | > 30 µM (inactive) | > 30 µM (inactive) | > 30 µM (inactive) | > 30 µM (inactive) | > 30 µM (inactive) | – | 0.44 µM (active) | > 30 µM (inactive) | > 30 µM (inactive) | > 30 µM (inactive) | > 30 µM (inactive) | > 30 µM (inactive) | CCS(=O)(=O)N1CCN(c2ccc(Nc3ncc(C(N)=O)c(NC4CC4)n3)cc2)CC1 [Cerdulatinib Hydrochloride]
9 | 0.371 µM (active) | > 30 µM (inactive) | > 30 µM (inactive) | 8.19 µM (active) | > 30 µM (inactive) | > 30 µM (inactive) | > 30 µM (inactive) | > 30 µM (inactive) | > 30 µM (inactive) | > 30 µM (inactive) | > 30 µM (inactive) | > 30 µM (inactive) | > 30 µM (inactive) | – | CCn1cc(-c2ccnc3[nH]c(-c4cccc(CN(C)C)c4)cc23)c(-c2ccc(NC(=O)N(C)C)cc2)n1 [GSK-1070916]
10 | > 30 µM (inactive) | > 30 µM (inactive) | > 30 µM (inactive) | > 30 µM (inactive) | > 30 µM (inactive) | > 30 µM (inactive) | – | > 30 µM (inactive) | > 30 µM (inactive) | > 30 µM (inactive) | > 30 µM (inactive) | > 30 µM (inactive) | > 30 µM (inactive) | > 30 µM (inactive) | COc1ccc(S(=O)(=O)N(C(C)=O)c2ccccc2/C=C/c2cc[n+]([O-])cc2)cc1 [HMN-214]
11 | > 30 µM (inactive) | > 30 µM (inactive) | > 30 µM (inactive) | > 30 µM (inactive) | > 30 µM (inactive) | > 30 µM (inactive) | > 30 µM (inactive) | > 30 µM (inactive) | > 30 µM (inactive) | > 30 µM (inactive) | > 30 µM (inactive) | > 30 µM (inactive) | > 30 µM (inactive) | – | CO[C@H]1C[C@@H]2CC[C@@H](C)[C@@](O)(O2)C(=O)C(=O)N2CCCC[C@H]2C(=O)O[C@H]([C@H](C)C[C@@H]2CC[C@@H](OP(C)(C)=O)[C@H](OC)C2)CC(=O)[C@H](C)/C=C(\C)[C@@H](O)[C@@H](OC)C(=O)[C@H](C)C[C@H](C)/C=C/C=C/C=C/1C [RIDAFOROLIMUS]
